The values that follow come from ChEMBL document CHEMBL3638626, “1,3,5-triazine-2-amine derivatives, preparation thereof and diagnostic and therapeutic use thereof” (2015).

For the experiment, the target named is Cannabinoid receptor 2 (Homo sapiens, UniProt P34972). The experiment is described as follows: Binding Assay: Affinity binding tests were performed according to the experimental conditions described by M. Rinaldi-Carmona in J. Pharmacol. Exp. Therap. 1998, 287, 644-650, with membranes derived either from rodent tissues or from recombinant cell lines in which the human CB2 receptors were expressed (Munro et al., Nature 1993, 365, 61-65). The affinity of the compounds is expressed in the form of the IC50 (concentration causing 50% inhibition of specific binding of the tritiated ligand used in vitro).
Cannabinoid receptor 2, sequence (P34972 whole entry): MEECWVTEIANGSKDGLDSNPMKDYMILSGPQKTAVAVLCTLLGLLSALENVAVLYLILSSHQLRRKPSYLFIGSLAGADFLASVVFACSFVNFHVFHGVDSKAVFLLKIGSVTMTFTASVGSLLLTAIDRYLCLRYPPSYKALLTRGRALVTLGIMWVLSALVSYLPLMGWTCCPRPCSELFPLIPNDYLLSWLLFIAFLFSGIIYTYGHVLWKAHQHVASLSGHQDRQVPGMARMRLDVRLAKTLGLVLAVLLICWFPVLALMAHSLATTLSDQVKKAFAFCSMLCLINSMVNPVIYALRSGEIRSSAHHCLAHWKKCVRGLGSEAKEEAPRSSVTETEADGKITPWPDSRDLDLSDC
By IC50 is commonly meant the concentration needed to halve the response being measured. As for `COc1nc(NCCc2ccc(F)cc2)nc(-c2cc3c(Cl)cccc3[nH]2)n1`, the IC50 was determined as 7 nM.

With `COc1nc(NCCc2ccc(F)cc2)nc(-c2ccc(Cl)c(O)c2)n1`, the concentration for half-maximal inhibition (IC50) stood at 21 nM.

For `COc1nc(NCCc2ccc(F)cc2)nc(-c2ccc(OC)c(C(C)(C)O)c2)n1`, the IC50 was found to be 1 nM.

Consider `COc1cccc(-c2nc(NCCc3ccc(F)cc3)nc(OC)n2)c1`, for which the IC50 is 29 nM.

Consider `COc1nc(NCCc2ccc(F)cc2)nc(-c2cccc(C(C)(C)O)c2)n1`, for which the half-inhibitory concentration (IC50) worked out at 9 nM.

Consider `COc1nc(NCCc2ccc(OC(F)F)cc2)nc(-c2ccc(Cl)c(C(C)(C)O)c2)n1`, for which the IC50 came out at 1.2 nM.

On to `COc1nc(NCCc2ccc(OC(F)F)cc2)nc(-c2ccc(Cl)c(OCCCNS(C)(=O)=O)c2)n1`, for which the IC50 was found to be 41 nM.

For `COc1nc(NCCc2ccc(F)cc2)nc(-c2ccc(OC)c(S(=O)(=O)NC3CC3)c2)n1`, the IC50 was 12 nM.

For `CCOC(=O)COc1cc(-c2nc(NCCc3ccc(F)cc3)nc(OC)n2)ccc1Cl`, the IC50 is 10 nM.

As for `COc1nc(NCCc2ccc(F)cc2)nc(-c2ccc(Cl)c(OCC(N)=O)c2)n1`, the half-maximal inhibitory concentration (IC50) came out at 1 nM.

`COc1nc(NCCc2ccc(F)cc2)nc(-c2cc3cc(F)ccc3[nH]2)n1`: the IC50 stood at 12 nM.

For the compound `COc1nc(NCCc2ccc(OCF)cc2)nc(-c2ccc(Cl)c(C(C)(C)O)c2)n1`, the IC50 came to 3.9 nM.
